Assay results: ChEMBL document CHEMBL5715260, “Selectivity Literature for EUbOPEN Chemogenomic Library” (2024)
pIC50, pKd, pKi: −log10 of the molar value. Where a SMILES comes first, the peptide text is derived from it. [ ]: non-standard residue; d: D form. The star is where a group is joined. Benzoyl(4-OPh) = O=C(c1ccc(Oc2ccccc2)cc1)*; Lys(Et2) = CCN(CC)CCCC[C@H](N)C(=O)O; d(aIle) = CC[C@H](C)[C@@H](N)C(=O)O; Gly(cPent) = N[C@H](C(=O)O)C1CCCC1; NH(propargyl) = C#CCN*

What was measured:
[1] = molecular target: Sodium-dependent noradrenaline transporter (Homo sapiens) (UniProt P23975); experiment: Selectivity interaction (SafetyScreen (Eurofins)) EUB0002332a SLC6A2; parameters: recommended concentration 1 uM; conditions: at 10 µM
[2] = molecular target: Voltage-gated inwardly rectifying potassium channel KCNH2 (Homo sapiens, UniProt Q12809); experiment: Selectivity interaction (SafetyScreen (Eurofins)) EUB0002332a KCNH2; parameters: recommended concentration 1 uM; conditions: at 10 µM
[3] = molecular target: Oxidized purine nucleoside triphosphate hydrolase (Homo sapiens) (UniProt P36639); experiment: Selectivity interaction (Nudix + Nucleotide phosphohydrolase panel (enzymatic assay)) EUB0002332a NUDT1; parameters: recommended concentration 1 uM; conditions: at 100 µM
[4] = molecular target: 5-hydroxytryptamine receptor 1B (Homo sapiens) (UniProt P28222); experiment: (§1) Selectivity interaction (SafetyScreen (Eurofins)) EUB0002332a HTR1B; parameters: recommended concentration 1 uM; conditions: at 10 µM
[5] = molecular target: Sodium-dependent dopamine transporter (Homo sapiens) (UniProt Q01959); experiment: Selectivity interaction (SafetyScreen (Eurofins)) EUB0002332a SLC6A3; parameters: recommended concentration 1 uM; conditions: at 10 µM
[6] = molecular target: 5-hydroxytryptamine receptor 1B (Homo sapiens) (UniProt P28222); experiment: as §1; parameters: recommended concentration 1 uM; conditions: at 10 µM; remark: listed apart in the source
[7] = molecular target: Transcription initiation factor TFIID subunit 1 (Homo sapiens, UniProt P21675); experiment: Selectivity interaction (BROMOscan (Eurofins)) EUB0002282a TAF1; parameters: recommended concentration 1 uM
[8] = molecular target: T1, Histone acetyltransferase p300 (Homo sapiens, UniProt Q09472); experiment: Selectivity interaction (BROMOscan (Eurofins)) EUB0002282a EP300; parameters: recommended concentration 1 uM
[9] = molecular target: T2, Bromodomain-containing protein 9 (Homo sapiens, UniProt Q9H8M2); experiment: Selectivity interaction (BROMOscan (Eurofins)) EUB0002282a BRD9; parameters: recommended concentration 1 uM
T2 sequence (Q9H8M2 whole entry): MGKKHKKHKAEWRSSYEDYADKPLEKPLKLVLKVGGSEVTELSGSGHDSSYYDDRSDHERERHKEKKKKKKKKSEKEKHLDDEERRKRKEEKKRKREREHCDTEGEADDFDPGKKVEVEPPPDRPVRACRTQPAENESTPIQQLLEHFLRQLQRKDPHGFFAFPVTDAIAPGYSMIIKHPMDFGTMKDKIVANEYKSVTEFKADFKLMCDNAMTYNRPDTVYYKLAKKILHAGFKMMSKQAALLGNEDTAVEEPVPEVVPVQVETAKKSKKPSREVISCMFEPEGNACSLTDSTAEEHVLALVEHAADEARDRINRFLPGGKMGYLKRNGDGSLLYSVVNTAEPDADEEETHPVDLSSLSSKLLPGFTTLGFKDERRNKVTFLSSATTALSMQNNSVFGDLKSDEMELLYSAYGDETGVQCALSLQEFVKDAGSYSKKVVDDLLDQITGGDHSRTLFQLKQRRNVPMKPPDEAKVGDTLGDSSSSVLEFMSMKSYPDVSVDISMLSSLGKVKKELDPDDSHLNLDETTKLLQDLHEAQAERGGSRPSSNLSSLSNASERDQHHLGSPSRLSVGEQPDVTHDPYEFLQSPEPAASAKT

[10] = molecular target: CREB-binding protein (Homo sapiens, UniProt Q92793); experiment: Selectivity interaction (BROMOscan (Eurofins)) EUB0002282a CREBBP; parameters: recommended concentration 1 uM
[11] = molecular target: Bromodomain adjacent to zinc finger domain protein 2B (Homo sapiens, UniProt Q9UIF8); experiment: Selectivity interaction (BROMOscan (Eurofins)) EUB0002282a BAZ2B; parameters: recommended concentration 1 uM
[12] = molecular target: Chromatin remodeling regulator CECR2 (Homo sapiens, UniProt Q9BXF3); experiment: Selectivity interaction (BROMOscan (Eurofins)) EUB0002282a CECR2; parameters: recommended concentration 1 uM
[13] = molecular target: Bromodomain adjacent to zinc finger domain protein 2A (Homo sapiens, UniProt Q9UIF9); experiment: Selectivity interaction (BROMOscan (Eurofins)) EUB0002282a BAZ2A; parameters: recommended concentration 1 uM
[14] = molecular target: Peregrin (Homo sapiens, UniProt P55201); experiment: Selectivity interaction (BROMOscan (Eurofins)) EUB0002282a BRPF1; parameters: recommended concentration 1 uM
[15] = molecular target: Bromodomain testis-specific protein (Homo sapiens, UniProt Q58F21); experiment: Selectivity interaction (BROMOscan (Eurofins)) EUB0002282a BRDT; parameters: recommended concentration 1 uM
[16] = molecular target: T3, Histone deacetylase 8 (Homo sapiens, UniProt Q9BY41)
T3 sequence (Q9BY41 whole entry): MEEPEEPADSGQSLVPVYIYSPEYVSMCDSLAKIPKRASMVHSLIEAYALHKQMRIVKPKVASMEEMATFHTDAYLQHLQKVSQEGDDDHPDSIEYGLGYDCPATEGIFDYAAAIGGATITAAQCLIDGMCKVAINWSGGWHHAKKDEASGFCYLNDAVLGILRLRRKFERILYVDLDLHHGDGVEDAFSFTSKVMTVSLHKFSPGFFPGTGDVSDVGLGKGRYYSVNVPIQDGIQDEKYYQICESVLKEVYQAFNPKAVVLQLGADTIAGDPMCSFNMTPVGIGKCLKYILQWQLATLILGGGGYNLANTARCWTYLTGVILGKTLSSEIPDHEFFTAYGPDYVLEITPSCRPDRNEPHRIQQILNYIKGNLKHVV

[17] = molecular target: T3, Histone deacetylase 8; remark: listed apart in the source
[18] = molecular target: T3, Histone deacetylase 8; remark: listed apart in the source
[19] = molecular target: Cathepsin S (Homo sapiens, UniProt P25774); experiment: Selectivity interaction (Enzymatic assay) EUB0002529a CTSS; parameters: recommended concentration 1 uM
[20] = molecular target: Muscarinic acetylcholine receptor M1 (Homo sapiens, UniProt P11229); experiment: Selectivity interaction (Membrane binding assay) EUB0002488aCl CHRM1; parameters: recommended concentration 1 uM
[21] = molecular target: T1, Histone acetyltransferase p300; experiment: (§2) Selectivity interaction (BROMOscan (DiscoverX)) EUB0002298a EP300; parameters: recommended concentration 1 uM
[22] = molecular target: T1, Histone acetyltransferase p300; experiment: as §2; parameters: recommended concentration 1 uM; remark: listed apart in the source
[23] = molecular target: T1, Histone acetyltransferase p300; experiment: as §2; parameters: recommended concentration 1 uM; remark: listed apart in the source
[24] = molecular target: Chromobox protein homolog 7 (Homo sapiens, UniProt O95931); experiment: Selectivity interaction (Fluorescence polarisation assay (chromodomain family)) EUB0002326a CBX7; parameters: recommended concentration 1 uM
[25] = molecular target: T4, Chromobox protein homolog 2 (Homo sapiens, UniProt Q14781); experiment: (§3) Selectivity interaction (Fluorescence polarisation assay (chromodomain family)) EUB0002326a CBX2; parameters: recommended concentration 1 uM
T4 sequence (Q14781 whole entry): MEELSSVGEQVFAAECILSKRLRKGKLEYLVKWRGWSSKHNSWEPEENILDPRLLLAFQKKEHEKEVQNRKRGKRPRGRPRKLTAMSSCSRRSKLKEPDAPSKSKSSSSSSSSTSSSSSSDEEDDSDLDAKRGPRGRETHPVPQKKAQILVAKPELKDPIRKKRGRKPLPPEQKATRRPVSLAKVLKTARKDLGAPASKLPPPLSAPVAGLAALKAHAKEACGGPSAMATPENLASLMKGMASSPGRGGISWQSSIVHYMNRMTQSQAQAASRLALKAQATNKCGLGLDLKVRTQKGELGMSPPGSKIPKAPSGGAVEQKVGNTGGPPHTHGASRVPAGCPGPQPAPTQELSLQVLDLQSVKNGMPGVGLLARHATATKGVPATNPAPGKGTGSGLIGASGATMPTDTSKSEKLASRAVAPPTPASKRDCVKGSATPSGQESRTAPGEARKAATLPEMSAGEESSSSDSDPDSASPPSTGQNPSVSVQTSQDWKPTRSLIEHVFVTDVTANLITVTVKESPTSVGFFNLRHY

[26] = molecular target: T4, Chromobox protein homolog 2; experiment: as §3; parameters: recommended concentration 1 uM; remark: listed apart in the source
[27] = molecular target: P2X purinoceptor 3 (Homo sapiens, UniProt P56373); experiment: Selectivity interaction (Patch-clamp recording assay) EUB0002673aCl P2RX3; parameters: recommended concentration 1 uM
[28] = molecular target: cGMP-inhibited 3',5'-cyclic phosphodiesterase 3B (Homo sapiens, UniProt Q13370); experiment: Selectivity interaction (Enzymatic assay) EUB0002598a PDE3B; parameters: recommended concentration 1 uM
[29] = molecular target: T5, Delta-type opioid receptor (Homo sapiens, UniProt P41143); experiment: (§4) Selectivity interaction (Panel of neurotransmitter receptors, receptors, ion channels/regulatory sites) EUB0002781aCl OPRD1; parameters: recommended concentration 1 uM
[30] = molecular target: Kappa-type opioid receptor (Homo sapiens, UniProt P41145); experiment: Selectivity interaction (Panel of neurotransmitter receptors, receptors, ion channels/regulatory sites) EUB0002781aCl OPRK1; parameters: recommended concentration 1 uM
[31] = molecular target: T6, Mu-type opioid receptor (Homo sapiens, UniProt P35372); experiment: (§5) Selectivity interaction (Panel of neurotransmitter receptors, receptors, ion channels/regulatory sites) EUB0002781aCl OPRM1; parameters: recommended concentration 1 uM
[32] = molecular target: T6, Mu-type opioid receptor; experiment: as §5; parameters: recommended concentration 1 uM; remark: listed apart in the source
[33] = molecular target: T5, Delta-type opioid receptor; experiment: as §4; parameters: recommended concentration 1 uM; remark: listed apart in the source
[34] = molecular target: Voltage-dependent L-type calcium channel subunit alpha-1S (Homo sapiens) (UniProt Q13698); experiment: Selectivity interaction (Panel of neurotransmitter receptors, receptors, ion channels/regulatory sites) EUB0002781aCl CACNA1S; parameters: recommended concentration 1 uM; conditions: at 10 µM

T1 sequence (Q09472 whole entry): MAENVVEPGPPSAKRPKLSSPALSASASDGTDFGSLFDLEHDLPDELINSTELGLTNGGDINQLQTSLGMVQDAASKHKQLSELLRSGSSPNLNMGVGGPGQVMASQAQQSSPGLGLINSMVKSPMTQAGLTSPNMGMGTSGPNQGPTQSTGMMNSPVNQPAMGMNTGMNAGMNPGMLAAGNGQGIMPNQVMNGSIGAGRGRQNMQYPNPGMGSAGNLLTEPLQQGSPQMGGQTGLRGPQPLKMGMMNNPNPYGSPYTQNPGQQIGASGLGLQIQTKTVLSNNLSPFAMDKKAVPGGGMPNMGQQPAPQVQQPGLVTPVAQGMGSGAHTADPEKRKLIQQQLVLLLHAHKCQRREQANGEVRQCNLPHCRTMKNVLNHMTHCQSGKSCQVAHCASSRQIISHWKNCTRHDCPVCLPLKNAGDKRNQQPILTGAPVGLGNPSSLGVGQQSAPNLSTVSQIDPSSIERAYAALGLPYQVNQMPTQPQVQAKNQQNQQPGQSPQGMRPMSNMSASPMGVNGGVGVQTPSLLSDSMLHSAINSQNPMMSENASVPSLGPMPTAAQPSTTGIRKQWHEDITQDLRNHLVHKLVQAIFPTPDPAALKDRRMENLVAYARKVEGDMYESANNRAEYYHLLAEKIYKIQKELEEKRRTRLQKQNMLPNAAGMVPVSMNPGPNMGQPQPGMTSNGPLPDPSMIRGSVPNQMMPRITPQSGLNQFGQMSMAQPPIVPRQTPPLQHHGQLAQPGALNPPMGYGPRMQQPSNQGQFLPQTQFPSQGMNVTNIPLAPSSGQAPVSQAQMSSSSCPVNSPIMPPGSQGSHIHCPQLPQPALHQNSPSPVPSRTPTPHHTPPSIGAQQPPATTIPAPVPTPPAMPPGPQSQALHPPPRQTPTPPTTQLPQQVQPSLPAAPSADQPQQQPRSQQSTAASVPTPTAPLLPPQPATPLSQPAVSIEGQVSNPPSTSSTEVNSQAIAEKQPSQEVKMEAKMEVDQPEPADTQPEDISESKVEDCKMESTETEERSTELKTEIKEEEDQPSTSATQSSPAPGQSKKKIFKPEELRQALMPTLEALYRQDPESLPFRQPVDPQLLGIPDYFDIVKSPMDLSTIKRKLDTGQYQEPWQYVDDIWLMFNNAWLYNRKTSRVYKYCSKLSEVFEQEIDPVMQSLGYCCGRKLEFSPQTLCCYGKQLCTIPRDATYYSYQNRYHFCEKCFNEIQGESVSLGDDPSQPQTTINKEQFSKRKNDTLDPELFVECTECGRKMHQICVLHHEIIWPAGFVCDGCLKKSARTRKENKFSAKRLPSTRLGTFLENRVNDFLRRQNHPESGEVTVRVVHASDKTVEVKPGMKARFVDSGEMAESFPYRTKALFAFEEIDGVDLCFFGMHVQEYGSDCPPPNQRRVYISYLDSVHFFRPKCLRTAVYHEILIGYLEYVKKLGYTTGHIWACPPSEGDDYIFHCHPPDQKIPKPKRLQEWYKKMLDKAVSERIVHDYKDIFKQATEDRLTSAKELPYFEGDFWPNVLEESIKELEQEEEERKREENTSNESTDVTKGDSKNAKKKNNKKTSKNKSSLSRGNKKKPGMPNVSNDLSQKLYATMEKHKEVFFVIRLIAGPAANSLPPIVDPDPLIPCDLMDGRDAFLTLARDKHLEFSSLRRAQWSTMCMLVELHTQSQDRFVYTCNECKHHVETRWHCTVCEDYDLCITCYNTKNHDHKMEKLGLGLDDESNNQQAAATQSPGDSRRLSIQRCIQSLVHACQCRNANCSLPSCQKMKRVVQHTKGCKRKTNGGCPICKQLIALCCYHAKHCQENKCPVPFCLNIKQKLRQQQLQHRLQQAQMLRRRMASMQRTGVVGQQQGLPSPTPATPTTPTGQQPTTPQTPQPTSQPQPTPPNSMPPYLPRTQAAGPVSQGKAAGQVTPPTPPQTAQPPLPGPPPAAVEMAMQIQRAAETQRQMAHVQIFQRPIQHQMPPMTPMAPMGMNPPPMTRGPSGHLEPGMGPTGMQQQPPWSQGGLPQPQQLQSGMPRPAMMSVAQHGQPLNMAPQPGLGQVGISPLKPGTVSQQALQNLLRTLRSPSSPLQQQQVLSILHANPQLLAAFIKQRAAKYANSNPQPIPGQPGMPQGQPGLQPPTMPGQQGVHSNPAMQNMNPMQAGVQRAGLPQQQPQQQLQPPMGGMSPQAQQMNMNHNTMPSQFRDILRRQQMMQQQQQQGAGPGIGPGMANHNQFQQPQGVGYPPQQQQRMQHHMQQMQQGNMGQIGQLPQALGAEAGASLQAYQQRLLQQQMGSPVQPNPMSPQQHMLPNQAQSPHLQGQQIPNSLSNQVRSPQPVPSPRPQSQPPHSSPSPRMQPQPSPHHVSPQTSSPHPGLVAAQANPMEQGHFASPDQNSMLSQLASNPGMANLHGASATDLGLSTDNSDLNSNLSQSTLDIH
5-hydroxytryptamine receptor 1B (Homo sapiens), sequence (P28222 whole entry): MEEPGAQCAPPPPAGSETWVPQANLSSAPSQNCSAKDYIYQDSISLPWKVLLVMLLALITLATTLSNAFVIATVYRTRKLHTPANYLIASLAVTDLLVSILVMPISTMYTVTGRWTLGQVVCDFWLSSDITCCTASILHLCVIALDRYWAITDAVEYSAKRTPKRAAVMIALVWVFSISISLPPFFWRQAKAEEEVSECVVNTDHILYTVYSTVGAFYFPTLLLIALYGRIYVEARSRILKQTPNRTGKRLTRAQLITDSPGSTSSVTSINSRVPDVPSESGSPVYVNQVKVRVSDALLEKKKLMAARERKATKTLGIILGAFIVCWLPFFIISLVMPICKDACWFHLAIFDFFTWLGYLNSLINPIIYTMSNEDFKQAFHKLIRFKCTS
T5 sequence (P41143 whole entry): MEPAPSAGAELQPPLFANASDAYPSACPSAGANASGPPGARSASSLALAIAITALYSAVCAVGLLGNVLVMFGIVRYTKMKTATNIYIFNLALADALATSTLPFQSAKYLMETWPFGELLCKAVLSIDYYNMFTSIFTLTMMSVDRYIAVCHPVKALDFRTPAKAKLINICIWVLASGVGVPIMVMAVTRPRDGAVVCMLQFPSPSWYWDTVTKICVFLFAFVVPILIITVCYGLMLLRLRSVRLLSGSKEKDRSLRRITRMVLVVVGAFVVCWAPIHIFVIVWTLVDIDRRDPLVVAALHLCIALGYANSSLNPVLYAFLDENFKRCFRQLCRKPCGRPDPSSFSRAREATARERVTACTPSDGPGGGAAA
T6 sequence (P35372 whole entry): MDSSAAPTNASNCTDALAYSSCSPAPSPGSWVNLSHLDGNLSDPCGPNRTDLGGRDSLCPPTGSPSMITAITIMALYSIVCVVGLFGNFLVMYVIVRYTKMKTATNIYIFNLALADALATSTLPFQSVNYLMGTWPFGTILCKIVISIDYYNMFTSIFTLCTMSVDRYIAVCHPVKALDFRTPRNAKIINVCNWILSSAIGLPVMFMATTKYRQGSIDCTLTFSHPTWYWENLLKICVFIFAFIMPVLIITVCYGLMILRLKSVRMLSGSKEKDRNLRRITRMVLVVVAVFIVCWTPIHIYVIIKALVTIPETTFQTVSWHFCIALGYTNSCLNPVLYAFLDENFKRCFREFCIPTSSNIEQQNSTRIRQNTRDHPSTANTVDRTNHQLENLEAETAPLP
Voltage-gated inwardly rectifying potassium channel KCNH2, sequence (Q12809 whole entry): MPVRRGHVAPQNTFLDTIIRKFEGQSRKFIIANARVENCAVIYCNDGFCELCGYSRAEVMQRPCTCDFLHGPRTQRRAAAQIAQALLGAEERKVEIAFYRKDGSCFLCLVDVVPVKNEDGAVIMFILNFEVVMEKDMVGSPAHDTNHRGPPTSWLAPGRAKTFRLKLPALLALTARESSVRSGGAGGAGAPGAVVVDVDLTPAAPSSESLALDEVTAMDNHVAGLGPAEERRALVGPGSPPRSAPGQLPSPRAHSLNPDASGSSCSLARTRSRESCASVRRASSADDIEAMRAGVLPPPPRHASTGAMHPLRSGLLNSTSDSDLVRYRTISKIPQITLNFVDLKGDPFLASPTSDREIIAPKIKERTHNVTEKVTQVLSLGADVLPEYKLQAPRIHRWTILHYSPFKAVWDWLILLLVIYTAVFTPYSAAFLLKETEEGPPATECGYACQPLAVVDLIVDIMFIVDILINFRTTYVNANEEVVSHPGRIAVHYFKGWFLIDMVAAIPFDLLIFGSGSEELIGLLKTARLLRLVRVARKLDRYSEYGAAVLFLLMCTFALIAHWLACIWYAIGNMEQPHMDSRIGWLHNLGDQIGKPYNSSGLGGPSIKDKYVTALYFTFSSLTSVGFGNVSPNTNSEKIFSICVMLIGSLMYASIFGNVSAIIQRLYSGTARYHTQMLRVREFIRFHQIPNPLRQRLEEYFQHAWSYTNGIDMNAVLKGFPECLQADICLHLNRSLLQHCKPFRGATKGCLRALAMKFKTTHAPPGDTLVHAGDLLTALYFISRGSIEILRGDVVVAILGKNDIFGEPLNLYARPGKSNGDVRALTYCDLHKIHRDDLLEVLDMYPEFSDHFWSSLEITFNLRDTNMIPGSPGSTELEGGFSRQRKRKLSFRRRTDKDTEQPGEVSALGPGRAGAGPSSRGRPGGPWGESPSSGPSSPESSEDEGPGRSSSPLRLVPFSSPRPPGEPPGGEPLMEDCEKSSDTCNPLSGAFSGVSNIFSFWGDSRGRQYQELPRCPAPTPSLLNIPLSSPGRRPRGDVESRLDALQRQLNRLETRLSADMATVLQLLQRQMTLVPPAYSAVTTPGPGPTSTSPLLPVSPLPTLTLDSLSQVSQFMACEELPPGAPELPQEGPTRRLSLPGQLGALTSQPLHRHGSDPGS
Cathepsin S, sequence (P25774 whole entry): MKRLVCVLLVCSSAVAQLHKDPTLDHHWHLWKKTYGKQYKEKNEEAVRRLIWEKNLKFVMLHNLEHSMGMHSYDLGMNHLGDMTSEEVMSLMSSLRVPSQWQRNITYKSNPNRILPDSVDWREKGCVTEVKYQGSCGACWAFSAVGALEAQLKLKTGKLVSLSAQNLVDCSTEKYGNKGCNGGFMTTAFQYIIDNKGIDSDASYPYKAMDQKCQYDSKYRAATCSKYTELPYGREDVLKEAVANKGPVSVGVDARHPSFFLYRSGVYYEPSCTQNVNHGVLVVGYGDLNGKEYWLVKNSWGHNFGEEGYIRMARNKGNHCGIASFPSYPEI

Structure (SMILES): Cn1c(=O)c2c(nc(N3CCNCC3)n2Cc2nnc(-c3ccc(Cl)c(Cl)c3)o2)n(C)c1=O
- Inhibition of control [1]: > 50%
- Inhibition of control [2]: > 50%
- Enzyme activity [3]: < 20%
- Inhibition of control [4]: > 50%
- Inhibition of control [5]: 50%
- Inhibition of control [6]: > 50%

Structure (SMILES): Cc1cc(-c2ccc3nc(C4CCOCC4)n(CCOC(F)(F)F)c3c2)cn(C)c1=O
- pKd [7]: 6.96
- pKd [8]: 7.60
- pKd [9]: 7.19
- pKd [10]: 7.64
- pKd [11]: 6.72
- pKd [12]: 7.42
- pKd [13]: 6.85
- pKd [14]: 7.00
- pKd [15]: 7.60

Structure (SMILES): CN(C)Cc1ccc(S(=O)(=O)n2ccc(/C=C/C(=O)NO)c2)cc1
- pIC50 [16]: 6.06
- pIC50 [17]: 6.06
- pIC50 [18]: 6.06

Structure (SMILES): Cn1nc(C(C)(C)C)cc1C(=O)NC(Cc1cccc(Cl)c1)C(=O)NCC#N (centres undefined)
- pKi [19]: 6.07

Structure (SMILES): CN1[C@@H]2CC[C@H]1C[C@@H](OC(c1ccc(F)cc1)c1ccc(F)cc1)C2
- pKi [20]: 7.94

Structure (SMILES): CCCOc1ccc(CCc2nc3cc(-c4c(C)noc4C)ccc3n2CCN2CCOCC2)cc1
- pIC50 [21]: 6.44
- pIC50 [22]: 6.44
- pIC50 [23]: 6.44

Structure (SMILES): C#CCNC(=O)[C@H](CO)NC(=O)[C@H](CCCCN(CC)CC)NC(=O)[C@H](NC(=O)[C@@H](NC(=O)c1ccc(Oc2ccccc2)cc1)C1CCCC1)[C@@H](C)CC ({Benzoyl(4-OPh)}-[Gly(cPent)][d(aIle)][Lys(Et2)]S-{NH(propargyl)})
- pKd [24]: < 4.80
- pKd [25]: 5.34
- pKd [26]: 5.34

Structure (SMILES): CCCCOc1c(OC)cc(C(=O)NCC2(N(C)C)CCOCC2)cc1OC
- pIC50 [27]: 6.06

Structure (SMILES): CC(C)C(=O)c1c(C(C)C)nn2ccccc12 [IBUDILAST]
- pIC50 [28]: 5.57

Structure (SMILES): N=C(N)NC(=O)c1cnn(-c2cccc3ncccc23)c1C1CC1
- pKi [29]: 6.62
- pKi [30]: 6.67
- pKi [31]: 7.22
- pKi [32]: 6.67
- pKi [33]: 6.67
- inhibition [34]: 62%
